In patent US20230322846A9, “NEUROACTIVE STEROIDS AND THEIR METHODS OF USE” (SAGE THERAPEUTICS, INC., priority 2018, published 2023):

Target: [35S]-TBPS binding, rat brain cortical membranes
Experiment: Steroid inhibition of [35S]-TBPS binding
Conditions: 3 nM [35S]-TBPS, in the presence of 5 mM GABA
Procedure: [^35S]-t-Butylbicyclophosphorothionate (TBPS) binding assays using rat brain cortical membranes in the presence of 5 mM GABA has been described (Gee et al, J. Pharmacol. Exp. Ther. 1987, 241, 346-353; Hawkinson et al, Mol. Pharmacol. 1994, 46, 977-985; Lewin, A. H et al., Mol. Pharmacol. 1989, 35, 189-194).
Briefly, cortices are rapidly removed following decapitation of carbon dioxide-anesthetized Sprague-Dawley rats (200-250 g). The cortices are homogenized in 10 volumes of ice-cold 0.32 M sucrose using a glass/teflon homogenizer and centrifuged at 1500×g for 10 min at 4° C. The resultant supernatants are centrifuged at 10,000×g for 20 min at 4° C. to obtain the P2 pellets. The P2 pellets are resuspended in 200 mM NaCl/50 mM Na—K phosphate pH 7.4 buffer and centrifuged at 10,000×g for 10 min at 4° C. This washing procedure is repeated twice and the pellets are resuspended in 10 volumes of buffer. Aliquots ([…]) of the membrane suspensions are incubated with 3 nM [^35S]-TBPS and […] aliquots of test drug dissolved in dimethyl sulfoxide (DMSO) (final 0.5%) in the presence of 5 mM GABA. The incubation is brought to a final volume of 1.0 mL with buffer. Nonspecific binding is determined in the presence of […] and ranged from 15 to 25%. Following a 90 min incubation at room temp, the assays are terminated by filtration through glass fiber filters (Schleicher and Schuell No. 32) using a cell harvester (Brandel) and rinsed three times with ice-cold buffer. Filter bound radioactivity is measured by liquid scintillation spectrometry. Non-linear curve fitting of the overall data for each drug averaged for each concentration is done using Prism (GraphPad). […] The concentration of test compound producing 50% inhibition (IC50) of specific binding and the maximal extent of inhibition (Imax) are determined for the individual experiments with the same model used for the overall data and then the means±SEM.s of the individual experiments are calculated.
Various compounds are or can be screened to determine their potential as modulators of [^35S]-TBPS binding in vitro. These assays are or can be performed in accordance with the above

| Structure (SMILES) | IC50 |
| --- | --- |
| CC[C@]12CC[C@@](C)(O)C[C@H]1CC[C@H]1[C@@H]3CC[C@H](C(C)Cn4cc(C#N)cn4)[C@@]3(C)CC[C@@H]12 (stereo in doubt) [Example 325, 1-((S)-2-((3R,5R,8S,9S,10S,13S,14S,17R)-10-ethyl-3-hydroxy-3,13-dimethylhexadecahydro-1H-cyclopenta[a]phenanthren-17-yl)propyl)-1H-pyrazole-4-carbonitrile] | < 0.1 µM |
| CC[C@]12CC[C@@](C)(O)C[C@H]1CC[C@H]1[C@@H]3CC[C@H](C(C)Cn4cc(C#N)cn4)[C@@]3(C)CC[C@@H]12 (stereo in doubt) [Example 326, 1-((R)-2-((3R,5R,8S,9S,10S,13S,14S,17R)-10-ethyl-3-hydroxy-3,13-dimethylhexadecahydro-1H-cyclopenta[a]phenanthren-17-yl)propyl)-1H-pyrazole-4-carbonitrile] | < 0.1 µM |
| CCC[C@@]1(O)CC[C@@]2(C)[C@H](CC[C@H]3[C@@H]4CC[C@H](C(C)Cn5cc(C#N)cn5)[C@@]4(C)CC(=O)[C@@H]32)C1 (stereo in doubt) [Example 340, 1-((R)-2-((3R,5R,8S,9S,10S,13S,14S,17R)-3-hydroxy-10,13-dimethyl-11-oxo-3-propylhexadecahydro-1H-cyclopenta[a]phenanthren-17-yl)propyl)-1H-pyrazole-4-carbonitrile] | < 0.1 µM |
| CCOC(=O)c1cnc(C[C@H](C)[C@H]2CC[C@H]3[C@@H]4CC[C@H]5C[C@](C)(O)CC[C@@H]5[C@H]4CC[C@]23C)o1 (stereo in doubt) [Example 455] | < 0.1 µM |
| CCOC(=O)c1cnc(C[C@@H](C)[C@H]2CC[C@H]3[C@@H]4CC[C@@H]5C[C@](C)(O)CC[C@@H]5[C@H]4CC[C@]23C)o1 (stereo in doubt) [Example 456] | 0.1 to 1 µM |
| C[C@@]1(O)CC[C@H]2[C@H](CC[C@@H]3[C@@H]2CC[C@]2(C)[C@@H](CN4CCCCC4=O)CC[C@@H]32)C1 [Example 1, 1-(((3R,5R,8R,9R,10S,13S,14S,17S)-3-hydroxy-3,13-dimethylhexadecahydro-1H-cyclopenta[a]phenanthren-17-yl)methyl)piperidin-2-one] | 1 to 10 µM |
| CN(C[C@H]1CC[C@H]2[C@@H]3CC[C@@H]4C[C@](C)(O)CC[C@@H]4[C@H]3CC[C@]12C)C(=O)c1ccccc1 [Example 2, N-(((3R,5R,8R,9R,10S,13S,14S,17S)-3-hydroxy-3,13-dimethylhexadecahydro-1H-cyclopenta[a]phenanthren-17-yl)methyl)-N-methylbenzamide] | 0.1 to 1 µM |
| C[C@@]1(O)CC[C@H]2[C@H](CC[C@@H]3[C@@H]2CC[C@]2(C)[C@@H](CNC(=O)c4ccccc4)CC[C@@H]32)C1 [Example 3, N-(((3R,5R,8R,9R,10S,13S,14S,17S)-3-hydroxy-3,13-dimethylhexadecahydro-1H-cyclopenta[a]phenanthren-17-yl)methyl)benzamide] | < 0.1 µM |
| CN(C[C@H]1CC[C@H]2[C@@H]3CC[C@@H]4C[C@](C)(O)CC[C@@H]4[C@H]3CC[C@]12C)S(=O)(=O)c1ccccc1 [Example 5, N-(((3R,5R,8R,9R,10S,13S,14S,17S)-3-hydroxy-3,13-dimethylhexadecahydro-1H-cyclopenta[a]phenanthren-17-yl)methyl)-N-methylbenzenesulfonamide] | < 0.1 µM |
| C[C@H]1CCCC(=O)N1C[C@H]1CC[C@H]2[C@@H]3CC[C@@H]4C[C@](C)(O)CC[C@@H]4[C@H]3CC[C@]12C [Example 6, (S)-1-(((3R,5R,8R,9R,10S,13S,14S,17S)-3-hydroxy-3,13-dimethylhexadecahydro-1H-cyclopenta[a]phenanthren-17-yl)methyl)-6-methylpiperidin-2-one] | 1 to 10 µM |
| C[C@@H]1CCCC(=O)N1C[C@H]1CC[C@H]2[C@@H]3CC[C@@H]4C[C@](C)(O)CC[C@@H]4[C@H]3CC[C@]12C [Example 7, (R)-1-(((3R,5R,8R,9R,10S,13S,14S,17S)-3-hydroxy-3,13-dimethylhexadecahydro-1H-cyclopenta[a]phenanthren-17-yl)methyl)-6-methylpiperidin-2-one] | 1 to 10 µM |
| C[C@@]1(O)CC[C@H]2[C@H](CC[C@@H]3[C@@H]2CC[C@]2(C)[C@@H](CNC(=O)Cc4ccccc4)CC[C@@H]32)C1 [Example 8, N-(((3R,5R,8R,9R,10S,13S,14S,17S)-3-hydroxy-3,13-dimethylhexadecahydro-1H-cyclopenta[a]phenanthren-17-yl)methyl)-2-phenylacetamide] | < 0.1 µM |
| C[C@@]1(O)CC[C@H]2[C@H](CC[C@@H]3[C@@H]2CC[C@]2(C)[C@@H](CN4C[C@@H](c5ccccc5)CC4=O)CC[C@@H]32)C1 [Example 9, (R)-1-(((3R,5R,8R,9R,10S,13S,14S,17S)-3-hydroxy-3,13-dimethylhexadecahydro-1H-cyclopenta[a]phenanthren-17-yl)methyl)-4-phenylpyrrolidin-2-one] | 0.1 to 1 µM |
| C[C@@]1(O)CC[C@H]2[C@H](CC[C@@H]3[C@@H]2CC[C@]2(C)[C@@H](CN4C[C@H](c5ccccc5)CC4=O)CC[C@@H]32)C1 [Example 10, (S)-1-(((3R,5R,8R,9R,10S,13S,14S,17S)-3-hydroxy-3,13-dimethylhexadecahydro-1H-cyclopenta[a]phenanthren-17-yl)methyl)-4-phenylpyrrolidin-2-one] | 0.1 to 1 µM |
| C[C@@]1(O)CC[C@H]2[C@H](CC[C@@H]3[C@@H]2CC[C@]2(C)[C@@H](CN4CC[C@@H](c5ccccc5)C4=O)CC[C@@H]32)C1 [Example 11, (S)-1-(((3R,5R,8R,9R,10S,13S,14S,17S)-3-hydroxy-3,13-dimethylhexadecahydro-1H-cyclopenta[a]phenanthren-17-yl)methyl)-3-phenylpyrrolidin-2-one] | 0.1 to 1 µM |
| C[C@@]1(O)CC[C@H]2[C@H](CC[C@@H]3[C@@H]2CC[C@]2(C)[C@@H](CN4CC[C@H](c5ccccc5)C4=O)CC[C@@H]32)C1 [Example 12, (R)-1-(((3R,5R,8R,9R,10S,13S,14S,17S)-3-hydroxy-3,13-dimethylhexadecahydro-1H-cyclopenta[a]phenanthren-17-yl)methyl)-3-phenylpyrrolidin-2-one] | < 0.1 µM |
| C[C@@]1(O)CC[C@H]2[C@H](CC[C@@H]3[C@@H]2CC[C@]2(C)[C@@H](CN4C(=O)CCC[C@@H]4c4ccccc4)CC[C@@H]32)C1 [Example 13, (R)-1-(((3R,5R,8R,9R,10S,13S,14S,17S)-3-hydroxy-3,13-dimethylhexadecahydro-1H-cyclopenta[a]phenanthren-17-yl)methyl)-6-phenylpiperidin-2-one] | < 0.1 µM |
| C[C@@]1(O)CC[C@H]2[C@H](CC[C@@H]3[C@@H]2CC[C@]2(C)[C@@H](CN4C(=O)CCC[C@H]4c4ccccc4)CC[C@@H]32)C1 [Example 14, (S)-1-(((3R,5R,8R,9R,10S,13S,14S,17S)-3-hydroxy-3,13-dimethylhexadecahydro-1H-cyclopenta[a]phenanthren-17-yl)methyl)-6-phenylpiperidin-2-one] | 0.1 to 1 µM |
| CCOC[C@@]1(O)CC[C@H]2[C@H](CC[C@@H]3[C@@H]2CC[C@]2(C)[C@@H](CNC(=O)c4ccccc4)CC[C@@H]32)C1 [Example 15, N-(((3R,5R,8R,9R,10S,13S,14S,17S)-3-(ethoxymethyl)-3-hydroxy-13-methylhexadecahydro-1H-cyclopenta[a]phenanthren-17-yl)methyl)benzamide] | < 0.1 µM |
| COC[C@@]1(O)CC[C@H]2[C@H](CC[C@@H]3[C@@H]2CC[C@]2(C)[C@@H](CNC(=O)c4ccccc4)CC[C@@H]32)C1 [Example 16, N-(((3R,5R,8R,9R,10S,13S,14S,17S)-3-hydroxy-3-(methoxymethyl)-13-methylhexadecahydro-1H-cyclopenta[a]phenanthren-17-yl)methyl)benzamide] | < 0.1 µM |
| C[C@H](NS(=O)(=O)c1ccccc1)[C@H]1CC[C@H]2[C@@H]3CC[C@@H]4C[C@](C)(O)CC[C@@H]4[C@H]3CC[C@]12C [Example 17, N—((S)-1-((3R,5R,8R,9R,10S,13S,14S,17S)-3-hydroxy-3,13-dimethylhexadecahydro-1H-cyclopenta[a]phenanthren-17-yl)ethyl)benzenesulfonamide] | 1 to 10 µM |
